According to patent US20060069132A1, “Azolecarboxamide herbicides” (priority 2004, published 2006):

Legend:
Surinam grass = assay: Test B pre-/postemergence herbicide test; assay type: in vivo, Urochloa decumbens
How it was run: (§1)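 Herbicidal effect was judged by eye on a 0–100 scale after plants stood 13 to 15 days in the greenhouse following pre- or postemergence treatment with surfactant-containing formulations.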

giant foxtail [1] = assay: Test B pre-/postemergence herbicide test; assay type: in vivo, Setaria faberi
How it was run: as §1

pigweed = assay: Test B pre-/postemergence herbicide test; assay type: in vivo, Amaranthus retroflexus
How it was run: as §1

large crabgrass [2] = assay: Test A pre-/postemergence herbicide test; assay type: in vivo, Digitaria sanguinalis
How it was run: (§2)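 Pre: seeded sandy loam, directed soil spray, compound in non-phytotoxic solvent + surfactant. Post: 1–2-leaf plants (2–10 cm), sprayed to runoff. Greenhouse ~10 d; visual injury vs untreated, 0–100 scale.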

morningglory [3] = assay: Test B pre-/postemergence herbicide test; assay type: in vivo, Ipomoea coccinea
How it was run: (§3)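 Evaluation is visual, comparing treated with control plants on a scale where 0 means no effect and 100 means full control. Treatments were preemergence, or postemergence on seedlings 2–18 cm tall, and held 13–15 days in the greenhouse.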

redroot pigweed = assay: Test A pre-/postemergence herbicide test; assay type: in vivo, Amaranthus retroflexus
How it was run: as §2

wild oat = assay: Test B postemergence herbicide test; assay type: in vivo, Avena fatua; settings: scale 0 (no effect) to 100 (complete control)
How it was run: (§4)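 Postemergence plants were sprayed with formulated test chemicals at 2 to 18 cm height (1- to 4-leaf stage); paddy species were grown to the 2-leaf stage. After 13 to 15 days in a greenhouse, injury was rated visually against untreated controls on a 0–100 scale (0 = no effect, 100 = complete control).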

cocklebur = assay: Test B pre-/postemergence herbicide test; assay type: in vivo, Xanthium strumarium
How it was run: as §3

lambsquarters = assay: Test B pre-/postemergence herbicide test; assay type: in vivo, Chenopodium album
How it was run: as §1

blackgrass = assay: Test B postemergence herbicide test; assay type: in vivo, Alopecurus myosuroides; settings: scale 0 (no effect) to 100 (complete control)
How it was run: (§5)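 Each value is a visual 0–100 response rating taken against controls 13 to 15 days after treatment in the greenhouse. Plants received formulated chemical postemergence at the 1- to 4-leaf stage or, in flooded paddy, at the 2-leaf stage.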

rice [4] = assay: Test B flooded paddy test; assay type: in vivo, Oryza sativa; settings: 1000 g ai/ha, visual rating, scale 0 to 100 (0 no effect, 100 complete control), 13 to 15 days
How it was run: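 Treated at 2-leaf (paddy) or 1–4-leaf, 2–18 cm (postemergence); greenhouse 13–15 d; visual score vs control, 0 none to 100 complete control; dash = not tested.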

morningglory [5] = assay: Test A pre-/postemergence herbicide test; assay type: in vivo, Ipomoea spp.
How it was run: as §2

corn = assay: Test B pre-/postemergence herbicide test; assay type: in vivo, Zea mays
How it was run: as §1

[6] = test system: small flower umbrella sedge; assay: Test B flooded paddy test; assay type: in vivo, Cyperus difformis; settings: 1000 g ai/ha, visual rating, scale 0 to 100 (0 no effect, 100 complete control), 13 to 15 days
How it was run: as §5

rice [7] = assay: Test B pre-/postemergence herbicide test; assay type: in vivo, Oryza sativa; settings: preemergence, 125 g ai/ha; 0 to 100 scale, 0 is no effect, 100 is complete control
How it was run: as §1

giant foxtail [8] = assay: Test A pre-/postemergence herbicide test; assay type: in vivo, Setaria faberi
How it was run: as §2

barnyardgrass [9] = assay: Test B flooded paddy test; assay type: in vivo, Echinochloa crus-galli; settings: 1000 g ai/ha, visual rating, scale 0 to 100 (0 no effect, 100 complete control), 13 to 15 days
How it was run: as §5

velvetleaf [10] = assay: Test B pre-/postemergence herbicide test; assay type: in vivo, Abutilon theophrasti
How it was run: as §1

ducksalad = assay: Test B flooded paddy test; assay type: in vivo, Heteranthera limosa; settings: 1000 g ai/ha, visual rating, scale 0 to 100 (0 no effect, 100 complete control), 13 to 15 days
How it was run: as §5

barnyardgrass [11] = assay: Test A pre-/postemergence herbicide test; assay type: in vivo, Echinochloa crus-galli
How it was run: as §2

large crabgrass [12] = assay: Test B pre-/postemergence herbicide test; assay type: in vivo, Digitaria sanguinalis
How it was run: as §1

wheat = assay: Test B postemergence herbicide test; assay type: in vivo, Triticum aestivum; design: key to Wheat plant response rating: 0 = no effect, 100 = complete control; settings: scale 0 (no effect) to 100 (complete control)
How it was run: as §4

barnyardgrass [13] = assay: Test B pre-/postemergence herbicide test; assay type: in vivo, Echinochloa crus-galli
How it was run: as §3

velvetleaf [14] = assay: Test A pre-/postemergence herbicide test; assay type: in vivo, Abutilon theophrasti
How it was run: as §2

[15] = Postemergence, 500 g ai/ha, visual rating after 13 to 15 days, scale 0 (no effect) to 100 (complete control)
[16] = postemergence, 125 g ai/ha, visual rating, scale 0 (no effect) to 100 (complete control)
[17] = preemergence, 125 g ai/ha, 0 to 100 scale, 0 is no effect, 100 is complete control
[18] = Preemergence, 500 g ai/ha, scale 0 to 100
[19] = Postemergence, 500 g ai/ha, 0 to 100 scale, 0 no effect, 100 complete control
[20] = Postemergence, 2000 g ai/ha, 0 to 100 scale, 0 no effect, 100 complete control
[21] = Preemergence, 500 g ai/ha, visual rating, 0 to 100 scale (0 no effect, 100 complete control)
[22] = Preemergence, 2000 g ai/ha, 0 to 100 scale, 0 no effect, 100 complete control
[23] = Postemergence, 500 g ai/ha, visual rating after 13 to 15 days
[24] = postemergence, 125 g ai/ha, visual rating

Compound: CCOC(=O)c1cc(NC(=O)c2cc(C(C)(C)C)nn2CC)ccc1F [Compound 89]
- Plant response rating, Surinam Grass (Surinam grass; [15]): 20
- Surinam Grass plant response rating (Surinam grass; [16]): 10
- Plant response rating, Surinam Grass (Surinam grass; [17]): 0
- Plant response rating, Foxtail, Giant (giant foxtail [1]; [15]): 20
- Foxtail, Giant plant response rating (giant foxtail [1]; [18]): 0
- Foxtail, Giant plant response rating (giant foxtail [1]; [16]): 20
- Plant response rating, Foxtail, Giant (giant foxtail [1]; [17]): 0
- Plant response rating, Pigweed (pigweed; [15]): 40
- Pigweed plant response rating (pigweed; [16]): 20
- Plant response rating, Pigweed (pigweed; [17]): 0
- Crabgrass, Large plant response rating (large crabgrass [2]; [19]): 20
- Plant response rating, Crabgrass, Large (large crabgrass [2]; [20]): 25
- Crabgrass, Large plant response rating (large crabgrass [2]; [21]): 0
- Crabgrass, Large plant response rating (large crabgrass [2]; [22]): 0
- Plant response rating, Morningglory (morningglory [3]; [15]): 50
- Morningglory plant response rating (morningglory [3]; [16]): 20
- Plant response rating, Morningglory (morningglory [3]; [17]): 0
- Pigweed plant response rating (redroot pigweed; [19]): 20
- Plant response rating, Pigweed (redroot pigweed; [20]): 30
- Pigweed plant response rating (redroot pigweed; [21]): 0
- Pigweed plant response rating (redroot pigweed; [22]): 10
- Plant response rating, Oat, Wild (wild oat; [23]): 30
- Oat, Wild plant response rating (wild oat; [24]): 20
- Plant response rating, Cocklebur (cocklebur; [15]): 90
- Cocklebur plant response rating (cocklebur; [18]): 0
- Cocklebur plant response rating (cocklebur; [16]): 70
- Plant response rating, Cocklebur (cocklebur; [17]): 0
- Plant response rating, Lambsquarters (lambsquarters; [15]): 60
- Lambsquarters plant response rating (lambsquarters; [16]): 30
- Plant response rating, Lambsquarters (lambsquarters; [17]): 0
- Plant response rating, Blackgrass (blackgrass; [23]): 10
- Blackgrass plant response rating (blackgrass; [24]): 0
- Rice plant response rating (rice [4]): 10
- Morningglory plant response rating (morningglory [5]; [19]): 20
- Plant response rating, Morningglory (morningglory [5]; [20]): 15
- Morningglory plant response rating (morningglory [5]; [21]): 0
- Morningglory plant response rating (morningglory [5]; [22]): 10
- Plant response rating, Corn (corn; [15]): 20
- Corn plant response rating (corn; [18]): 0
- Corn plant response rating (corn; [16]): 10
- Plant response rating, Corn (corn; [17]): 0
- Sedge, Umbrella plant response rating [6]: 60
- Plant response rating, Rice (rice [7]): 0
- Foxtail, Giant plant response rating (giant foxtail [8]; [19]): 20
- Plant response rating, Foxtail, Giant (giant foxtail [8]; [20]): 20
- Foxtail, Giant plant response rating (giant foxtail [8]; [21]): 0
- Foxtail, Giant plant response rating (giant foxtail [8]; [22]): 0
- Barnyardgrass plant response rating (barnyardgrass [9]): 10
- Plant response rating, Velvetleaf (velvetleaf [10]; [15]): 50
- Velvetleaf plant response rating (velvetleaf [10]; [16]): 30
- Plant response rating, Velvetleaf (velvetleaf [10]; [17]): 0
- Ducksalad plant response rating (ducksalad): 0
- Barnyardgrass plant response rating (barnyardgrass [11]; [19]): 20
- Plant response rating, Barnyardgrass (barnyardgrass [11]; [20]): 20
- Barnyardgrass plant response rating (barnyardgrass [11]; [21]): 0
- Barnyardgrass plant response rating (barnyardgrass [11]; [22]): 0
- Plant response rating, Crabgrass, Large (large crabgrass [12]; [15]): 20
- Crabgrass, Large plant response rating (large crabgrass [12]; [18]): 80
- Crabgrass, Large plant response rating (large crabgrass [12]; [16]): 10
- Plant response rating, Crabgrass, Large (large crabgrass [12]; [17]): 0
- Plant response rating, Wheat (wheat; [23]): 20
- Wheat plant response rating (wheat; [24]): 20
- Plant response rating, Barnyardgrass (barnyardgrass [13]; [15]): 20
- Barnyardgrass plant response rating (barnyardgrass [13]; [18]): 0
- Barnyardgrass plant response rating (barnyardgrass [13]; [16]): 10
- Plant response rating, Barnyardgrass (barnyardgrass [13]; [17]): 0
- Velvetleaf plant response rating (velvetleaf [14]; [19]): 20
- Plant response rating, Velvetleaf (velvetleaf [14]; [20]): 20
- Velvetleaf plant response rating (velvetleaf [14]; [21]): 0
- Velvetleaf plant response rating (velvetleaf [14]; Preemergence, 2000 g ai/ha, visual rating, 0 to 100 scale (0 no effect, 100 complete control)): 10
